Two molecules from US7875587B2, “Peptide analogues of GIP for treatment of diabetes, insulin resistance and obesity” (UUTECH Limited, priority 2004, dated 2011) can be followed below.

In one data set the target is T1, DPP IV (Sus scrofa, UniProt P22411).
T1 construct: purchased Sigma (Poole, Dorset, UK)
The experiment in a line: Degradation of GIP and analogues by DPP IV (HPLC). Type of data set: in vitro ADME. As for the experimental part: Degradation of GIP and Tyr^1-glucitol GIP by DPP IV. HPLC-purified GIP or Tyr^1-glucitol GIP were incubated at 37° C. with DPP-IV (5 mU) for various time periods in a reaction mixture made up to 500 μl with 50 mmol/l triethanolamine-HCl, pH 7.8 (final peptide concentration 1 mmol/l). Enzymatic reactions were terminated after 0, 2, 4 and 12 hours by addition of 5 μl of 10% (v/v) TFA/water. Samples were made up to a final volume of 1.0 ml with 0.12% (v/v) TFA and stored at −20° C. prior to HPLC analysis.
(§1) HPLC analysis of degraded GIP and Tyr^1-glucitol GIP. […] Using 0.1% (v/v) TFA in 70% acetonitrile/H20, the concentration of acetonitrile in the eluting solvent was raised from 0% to 31.5% over 15 min, to 38.5% over 30 minutes and from 38.5% to 70% over 5 minutes, using linear gradients. The absorbance was monitored at 206 nm and peak areas evaluated using a model 2221 LKB integrator. Samples recovered manually were concentrated using a Speed-Vac concentrator.
(§2) Electrospray ionization-mass spectrometry (ESI-MS) was carried out as described in Example 2. Degradation of GIP and novel GIP analogues by DPP IV and human plasma was carried out as described in Example 2.

Data set [1] can be described thus: Degradation of GIP and analogues by human plasma (HPLC). It counts as in vitro ADME. The protocol: Degradation of GIP and Tyr^1-glucitol GIP by human plasma. […] […] The reactions were terminated by addition of 5 μl of TFA and the final volume adjusted to 1.0 ml using 0.1% v/v TFA/water. Samples were centrifuged (13,000 g, 5 minutes) and the supernatant applied to a C-18 Sep-Pak cartridge (Millipore-Waters) which was previously primed and washed with 0.1% (v/v) TFA/water. […] The volume was adjusted to 1.0 ml with 0.12% (v/v) TFA/water prior to HPLC purification.
as §1, §2

T1 sequence (P22411 whole entry): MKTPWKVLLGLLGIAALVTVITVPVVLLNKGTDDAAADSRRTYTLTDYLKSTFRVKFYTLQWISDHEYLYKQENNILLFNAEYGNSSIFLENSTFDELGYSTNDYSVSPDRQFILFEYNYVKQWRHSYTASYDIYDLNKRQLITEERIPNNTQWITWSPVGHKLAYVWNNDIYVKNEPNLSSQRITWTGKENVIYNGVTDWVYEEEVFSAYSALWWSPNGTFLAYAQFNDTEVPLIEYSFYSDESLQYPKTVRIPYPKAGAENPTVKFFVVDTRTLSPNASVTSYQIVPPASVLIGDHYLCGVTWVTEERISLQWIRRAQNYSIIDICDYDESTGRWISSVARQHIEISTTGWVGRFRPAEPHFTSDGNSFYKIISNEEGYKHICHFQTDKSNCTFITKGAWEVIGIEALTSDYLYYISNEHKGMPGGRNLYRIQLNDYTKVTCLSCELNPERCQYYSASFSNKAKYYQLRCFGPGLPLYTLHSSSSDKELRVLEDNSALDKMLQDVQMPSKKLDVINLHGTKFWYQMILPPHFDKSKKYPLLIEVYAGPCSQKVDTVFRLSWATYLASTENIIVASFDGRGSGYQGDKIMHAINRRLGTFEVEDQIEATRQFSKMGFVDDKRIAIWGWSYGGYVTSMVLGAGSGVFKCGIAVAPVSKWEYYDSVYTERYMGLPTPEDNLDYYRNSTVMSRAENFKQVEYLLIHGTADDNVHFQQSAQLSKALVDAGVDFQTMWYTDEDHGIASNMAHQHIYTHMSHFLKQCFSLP

For the molecule `CC[C@H](C)[C@H](NC(=O)[C@H](CO)NC(=O)[C@H](Cc1ccc(O)cc1)NC(=O)[C@H](CC(=O)O)NC(=O)[C@H](CO)NC(=O)[C@@H](NC(=O)[C@H](Cc1ccccc1)NC(=O)[C@@H](NC(=O)CNC(=O)[C@H](CCC(=O)O)NC(=O)[C@H](C)NC(=O)[C@H](Cc1ccc(O)cc1)NC(C)=O)[C@@H](C)O)[C@@H](C)CC)C(=O)N[C@@H](C)C(=O)N[C@@H](CCSC)C(=O)N[C@@H](CC(=O)O)C(=O)N[C@@H](CCCCN)C(=O)N[C@H](C(=O)N[C@@H](Cc1c[nH]cn1)C(=O)N[C@@H](CCC(N)=O)C(=O)N[C@@H](CCC(N)=O)C(=O)N[C@@H](CC(=O)O)C(=O)N[C@@H](Cc1ccccc1)C(=O)N[C@H](C(=O)N[C@@H](CC(N)=O)C(=O)N[C@@H](Cc1c[nH]c2ccccc12)C(=O)N[C@@H](CC(C)C)C(=O)N[C@@H](CC(C)C)C(=O)N[C@@H](C)C(=O)N[C@@H](CCC(N)=O)C(=O)N[C@@H](CCCCN)C(=O)NCC(=O)N[C@@H](CCCCN)C(=O)N[C@@H](CCCCN)C(=O)N[C@@H](CC(N)=O)C(=O)N[C@@H](CC(=O)O)C(=O)N[C@@H](Cc1c[nH]c2ccccc12)C(=O)N[C@@H](CCCCN)C(=O)N[C@@H](Cc1c[nH]cn1)C(=O)N[C@@H](CC(N)=O)C(=O)N[C@H](C(=O)N[C@H](C(=O)N[C@@H](CCC(N)=O)C(=O)O)[C@@H](C)O)[C@@H](C)CC)C(C)C)[C@@H](C)CC` [N-Acetyl-GIP], the “resistance to in vitro degradation with DPP IV relative to native GIP” value on DPP IV (Example 3, summary of Table 1) was “more resistant than native GIP”. The “% Intact peptide remaining after time (h)” value at DPP IV (incubation with DPP IV, 0 h) is 100%. Moreover, on DPP IV (isolated enzyme dpp iv, pH 7.8, incubation with DPP IV, 2 h, read-out: % Intact peptide remaining after time (h)), the share remaining (commonly what is left of the initial amount, in per cent) at 2 h, 1 mmol/l came out at 100%. Moreover, the share remaining at 4 h, 1 mmol/l on DPP IV (isolated enzyme dpp iv, pH 7.8, incubation with DPP IV, 4 h, read-out: % Intact peptide remaining after time (h)) was determined as 100%. Further, the share remaining at 8 h, 1 mmol/l on DPP IV (isolated enzyme dpp iv, pH 7.8, incubation with DPP IV, 8 h, read-out: % Intact peptide remaining after time (h)) came out at 100%.
On to “Ile-Pro-Ile [diprotin A, reference compound]”, for which the “effect of DPP IV inhibitor on degradation of GIP by plasma” value in data set [1] is “completely inhibited degradation of the peptide by plasma”.
